Measured values: US6117661A, “Mutant mono-oxygenase cytochrome P450cam” (BG plc, priority 1995, dated 2000)
Like-named read-outs stand apart in the source and are kept apart here.

Columns and labels:
[1] = biological target: T1, P450cam active site mutant Y96A (also C334A) (Pseudomonas putida, UniProt P00183, C335A/Y97A); type: biochemical, P. putida; settings: label = product
T1 construct: reconstituted with putidaredoxin and putidaredoxin reductase
Method: (§1) A buffered solution (50 mM Tris.HCI, pH 7.4), typically 3 ml in volume, containing 10 uM putidaredoxin, 2 uM putidaredoxin reductase, 1 uM cytochrome P-450cam mono-oxygenase (wild-type or mutant), 200 mM KCI, 50 ug/ml bovine liver catalase (Sigma), and 1 mM target organic compound such as cyclohexylbenzene (added as a 0.1 M stock in ethanol) was preincubated at 30° C. for 5 minutes. The enzymatic reaction was initiated by adding NADH to a total concentration of 2 mM. Further four aliquots of NADH (to increase the NADH concentration by 1 mM each time) were added in intervals of 10 minutes, and 30 minutes into the incubation one aliquot of substrate (to increase the concentration by 1 mM) was also added. The reaction was quenched after 60 minutes by adding 0.5 ml chloroform and vortexing the mixture. The phases were separated by centrifugation (4000 g) at 4° C. The chloroform layer was analyzed by gas chromatography.
(§2) For many substrate compounds such as cyclohexylbenzene for which not all the P-450cam-mediated oxidation products are commercially available, the chloroform extracts are evaporated to dryness under a stream of nitrogen. The residues were extracted with hexane and the oxidation products separated by high performance liquid chromatography, eluting with a hexane/isopropanol gradient. The purified products were then identified by mass spectroscopy and particularly nuclear magnetic resonance spectroscopy.
(§3) The NADH concentration can be monitored at 340 nm and, in all cases, more substrates and NADH are added during the incubation.

[2] = biological target: T2, P450cam active site mutant Y96F (also C334A) (Pseudomonas putida, UniProt P00183, C335A/Y97F); type: biochemical, P. putida; settings: label = product
T2 construct: reconstituted with putidaredoxin and putidaredoxin reductase
Method: as §1, §2, §3

[3] = biological target: T3, Wild type P450cam (Pseudomonas putida, UniProt P00183); type: binding, P. putida; settings: for Wild type ΔSpin high/low: -- = no shift, nd = not determined
[4] = biological target: P450cam Mutant Y96A (Pseudomonas putida, UniProt P00183, C335A/Y97A); type: binding, P. putida; settings: for Mutant Y96A ΔSpin high/low: -- = no shift, nd = not determined
[5] = biological target: T3, Wild type P450cam; assay: Turnover rate measured as NADH consumption rate; type: biochemical, P. putida; settings: small alkanes; background about 0.07
Method: as §1, §3
(§4) Turnover rate measured as NADH consumption rate
(§5) (nmole NADH/nmole P450cam/s).

[6] = biological target: T4, P450cam Y96A (also contains the C334A mutation) (Pseudomonas putida, UniProt P00183, C335A/Y97A); type: biochemical, P. putida; settings: small alkanes
T4 construct: reconstituted with putidaredoxin and putidaredoxin reductase
Method: as §1, §3, §4, §5

## CCCC(O)C(C)C (stereo not drawn) [2-methyl-3-hexanol]
[1]; substrate 2-methyl hexane
  Products(%) Y96A: 4%
[2]; substrate 2-methyl hexane
  Products(%) Y96F: 7%

## c1ccc(COCc2ccccc2)cc1 [Benzylether]
[3]
  Wild type Vs DTT: 5
[4]
  Mutant Y96A ΔSpin high/low: 55

## C1=CC2C3C=CC(C3)C2C1 (stereo not drawn) [Dicyclopentadiene]
[3]
  Wild type Vs DTT: 80
  Wild type ΔSpin high/low: 50
[4]
  Mutant Y96A Vs DTT: 90
  Mutant Y96A ΔSpin high/low: 90

## CC(=O)CCC(C)C [5-methyl-2-hexanone]
[1]; substrate 2-methyl hexane
  Products(%) Y96A: 14%
[2]; substrate 2-methyl hexane
  Products(%) Y96F: 16%

## CCCCCCCCCCCCOS(=O)(=O)O [SDS]
[3]
  Wild type Vs DTT: 20
[4]
  Mutant Y96A Vs DTT: 60

## CCc1ccccc1 [Ethylbenzene]
[4]
  Mutant Y96A ΔSpin high/low: 40

## C=Cc1ccccc1 [Styrene]
[4]
  Mutant Y96A Vs DTT: 30
  Mutant Y96A ΔSpin high/low: 30

## C=CC(=C)C [Isoprene]
[4]
  Mutant Y96A Vs DTT: 10
  Mutant Y96A ΔSpin high/low: 10

## c1ccc(Cc2ccccc2)cc1 [Diphenylmethane]
[3]
  Wild type Vs DTT: 5
[4]
  Mutant Y96A ΔSpin high/low: 45

## CCC(CC)CC [3-ethyl pentane]
[5]
  Turnover rate (NADH consumption rate) Wild type: background
[6]
  Turnover rate (NADH consumption rate) Y96A: 16.2 nmole NADH/nmole P450cam/s

## O=C(c1ccccc1)C1CCCCC1 [Cyclohexylphenylketone]
[3]
  Wild type Vs DTT: 30
[4]
  Mutant Y96A ΔSpin high/low: 60

## CCCCCCCCC [n-Nonane]
[4]
  Mutant Y96A Vs DTT: 45
  Mutant Y96A ΔSpin high/low: 70

## c1ccc2c(c1)Cc1ccccc1-2 [Fluorene]
[4]
  Mutant Y96A Vs DTT: 50

## C1CCCCC1 [Cyclohexane]
[4]
  Mutant Y96A Vs DTT: 60
  Mutant Y96A ΔSpin high/low: 60

## CC(C)CC(C)C [2,4-dimethyl pentane]
[5]
  Turnover rate (NADH consumption rate) Wild type: 0.2 nmole NADH/nmole P450cam/s
[6]
  Turnover rate (NADH consumption rate) Y96A: 12.6 nmole NADH/nmole P450cam/s

## O=C1C2CC3CC(C2)CC1C3 [adamantanone, reference compound]
[3]; Soret band 418 nm to 392 nm
  haem spin-state conversion on substrate binding: fully converted the haem to the 5-co-ordinated, high-spin form

## CCCCC(C)=O [2-hexanone]
[1]; substrate hexane
  Products(%) Y96A: 15%
[2]; substrate hexane
  Products(%) Y96F: 10%

## O=Cc1ccc2c(c1)Cc1ccccc1-2 [2-Fluorencarboxaldehyde]
[4]
  Mutant Y96A Vs DTT: 50

## CCCCC(C)(C)O [2-methyl-2-hexanol]
[1]; substrate 2-methyl hexane
  Products(%) Y96A: 74%
[2]; substrate 2-methyl hexane
  Products(%) Y96F: 72%

## CCC(C)C [2-methyl butane]
[5]
  Turnover rate (NADH consumption rate) Wild type: background
[6]
  Turnover rate (NADH consumption rate) Y96A: 4.6 nmole NADH/nmole P450cam/s

## C1=Cc2ccccc2CC1 [1,2-Dihydronaphthalene]
[3]
  Wild type Vs DTT: 20
  Wild type ΔSpin high/low: 5
[4]
  Mutant Y96A Vs DTT: 90
  Mutant Y96A ΔSpin high/low: 30

## CC(C)C(C)C [2,3-dimethyl butane]
[5]
  Turnover rate (NADH consumption rate) Wild type: background
[6]
  Turnover rate (NADH consumption rate) Y96A: 16.8 nmole NADH/nmole P450cam/s

## CC(C)CCC(C)O (stereo not drawn) [5-methyl-2-hexanol]
[1]; substrate 2-methyl hexane
  Products(%) Y96A: 8%
[2]; substrate 2-methyl hexane
  Products(%) Y96F: 5%

## CCC(C)(C)C [2,2-dimethyl butane]
[5]
  Turnover rate (NADH consumption rate) Wild type: background
[6]
  Turnover rate (NADH consumption rate) Y96A: 14.0 nmole NADH/nmole P450cam/s

## CCCC(C)CCC [4-methyl heptane]
[5]
  Turnover rate (NADH consumption rate) Wild type: 1.4 nmole NADH/nmole P450cam/s
[6]
  Turnover rate (NADH consumption rate) Y96A: 10.2 nmole NADH/nmole P450cam/s

## CC1CCCCC1 [Methylcyclohexane]
[3]
  Wild type Vs DTT: 50
  Wild type ΔSpin high/low: 50
[4]
  Mutant Y96A Vs DTT: 70
  Mutant Y96A ΔSpin high/low: 100

## C(=C/c1ccccc1)/c1ccccc1 [cis-Stilbene]
[3]
  Wild type Vs DTT: 20
[4]
  Mutant Y96A Vs DTT: 50
  Mutant Y96A ΔSpin high/low: 40

## CCCCCCCC/C=C\CCCCCCCC(=O)O [Oleic acid]
[3]
  Wild type Vs DTT: ~10
[4]
  Mutant Y96A Vs DTT: ~20

## CCc1cccc2ccccc12 [1-Ethylnaphthalene]
[4]
  Mutant Y96A Vs DTT: 20
  Mutant Y96A ΔSpin high/low: 5

## CCc1ccc2ccccc2c1 [2-Ethylnaphthalene]
[4]
  Mutant Y96A Vs DTT: 20
  Mutant Y96A ΔSpin high/low: 10
